Reference: paper PMC5451161 (Tetrahedron, asymmetry, 2016)

Biological target: NDM-1 (New Delhi metallo-β-Lactamase) (Klebsiella pneumoniae, UniProt C7C422)
Assay type: biochemical

Sequence of NDM-1 (New Delhi metallo-β-Lactamase) (C7C422 29-270 limits assumed): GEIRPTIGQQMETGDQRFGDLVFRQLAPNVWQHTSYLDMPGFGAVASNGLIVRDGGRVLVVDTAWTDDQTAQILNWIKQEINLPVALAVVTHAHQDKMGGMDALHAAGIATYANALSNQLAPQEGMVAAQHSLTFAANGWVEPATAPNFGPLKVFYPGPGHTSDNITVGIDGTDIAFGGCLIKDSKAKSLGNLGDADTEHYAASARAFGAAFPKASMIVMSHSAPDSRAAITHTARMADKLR

COC(=O)[C@@H]1COC2CSC(CS)N21 (stereo partly shown) [4f]
Ki: 1600 ± 600 nM
